This is an account of results in patent US9084719B2, “Compositions and method for treating infection in cattle and swine” (Intervet Inc., priority 2003, dated 2015).

Each structure is given as a SMILES string. Like-named read-outs stand apart in the source and are kept apart here.

The nature of the data set: Plasma levels of florfenicol / pharmacokinetic analysis in cattle after subcutaneous administration. The format is in vivo. The following applies: bovine, sc, 40 mg/kg, subcutaneous florfenicol solution, 40 mg per kg of body weight. The method, then:
Twenty-four head of cattle were used in the study as described below and were administered the formulations of the present invention. Serial blood samples were drawn at time 0 prior to dosing, then at 0.5, 1, 3, 6, 9, 12, 24, 36, 48, 60 and 72 hours post injection. The animals received one of the following treatment regimens.
The study was carried out in bovines of approximately 6 months of age or more that weigh about 125 kg or more. Selection was based on health status appearance, tractability and body weight. […] Animals that had received medication or have participated in another study in the previous 14 days were excluded from this study.
Plasma Levels of florfenicol were taken as follows: Approximately 10 mL of blood was collected from each calf by jugular venipuncture into a Vacutainer® tube containing sodium EDTA and processed for plasma.
Pharmacokinetic Analysis was carried out as follows: Plasma concentrations of florfenicol was reported in the appropriate units (i.e. μg/ml or ng/mL). Plasma florfenicol concentration versus time data was graphically presented for each individual animal, and as mean concentrations for the overall sample population.

On to `CS(=O)(=O)c1ccc([C@@H](O)[C@@H](CF)NC(=O)C(Cl)Cl)cc1` [florfenicol, D-(threo)-1-p-methylsulfonyl phenyl-2-dichloroacetamido-3-fluoro-1-propanol], for which the Cmax is 6370 ng/mL (FIG. 1, six cattle, read-out: Mean peak concentration (Cmax)); 5080 to 7000 ng/mL (FIG. 1, six cattle, read-out: Range of peak concentration (Cmax)); 4250 ng/mL (FIG. 2, six cattle, read-out: Mean peak concentration (Cmax)); 3460 to 5000 ng/mL (FIG. 2, six cattle, read-out: Range of peak concentration (Cmax)). The Tmax runs as follows: (FIG. 1, six cattle, read-out: Mean time to peak concentration (Tmax)) 5.5 h; (FIG. 1, six cattle, read-out: Range of time to peak concentration (Tmax)) 3 to 6 h; (FIG. 2, six cattle, read-out: Mean time to peak concentration (Tmax)) 3.67 h; (FIG. 2, six cattle, read-out: Range of time to peak concentration (Tmax)) 1 to 9 h.
